Results from PMC9683399 (Journal of medicinal chemistry, 2022).

Biological target: BRD4 D2 (Homo sapiens, UniProt O60885)

Cc1sc2c(c1C)C(c1ccc(Cl)cc1)=N[C@@H](CC(=O)OC(C)(C)C)c1nnc(C)n1-2 [(+)-JQ1]
binding to BRD4 D2 by ITC: potent binding
